Molecular target: Human Factor D (Homo sapiens (Human), UniProt P00746)
Assay: Human Factor D assay
Assay type: biochemical
Conditions: Table 3; Factor D inhibition, substrate Z-L-Lys-SBzl
How it was run: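 Serum-purified human factor D (80 nM final) preincubated 5 min at room temperature with test compound in 50 mM Tris, 1M NaCl, pH 7.5. Z-L-Lys-SBzl substrate and DTNB then added, each at 100 μM final. IC50 from nonlinear regression of reaction rate against compound concentration.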

Chain of Human Factor D (P00746 26-253): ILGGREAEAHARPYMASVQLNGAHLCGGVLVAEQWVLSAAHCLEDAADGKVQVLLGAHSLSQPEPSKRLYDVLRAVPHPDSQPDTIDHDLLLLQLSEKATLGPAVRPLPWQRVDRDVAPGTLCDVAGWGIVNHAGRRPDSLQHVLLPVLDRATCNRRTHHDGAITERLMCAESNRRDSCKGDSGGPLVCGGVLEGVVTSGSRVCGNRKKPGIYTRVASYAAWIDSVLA

SMILES | IC50 [µM]
CC(=O)c1cn(CC(=O)N2C[C@H](F)C[C@H]2C(=O)Nc2cccc(-c3ccccc3Cl)c2F)c2ccc(-c3cnc(O[C@@H]4CO[C@H]5[C@@H]4OC[C@H]5O)nc3)cc12 [Compound 501, (2S,4R)-1-(2-(3-Acetyl-5-(2-((3R,3aR,6R,6aR)-6-hydroxyhexahydrofuro[3,2-b]furan-3-yloxy)pyrimidin-5-yl)-1H-indol-1-yl)acetyl)-N-(2′-chloro-2-fluorobiphenyl-3-yl)-4-fluoropyrrolidine-2-carboxamide] | < 1
CC(=O)c1nn(CC(=O)N2C[C@H](F)C[C@H]2C(=S)NCc2cccc(Cl)c2F)c2ccc(-c3cnc(C)nc3)cc12 [Compound 517, (2S,4R)-1-(2-(3-Acetyl-5-(2-methylpyrimidin-5-yl)-1H-indazol-1-yl)acetyl)-N-(3-chloro-2-fluorobenzyl)-4-fluoropyrrolidine-2-carbothioamide] | < 1
CC(=O)c1cn(CC(=O)N2C[C@H](F)C[C@H]2C(=O)Nc2cccc(Br)n2)c2ccc(-c3cnc(O[C@@H]4CO[C@H]5[C@@H]4OC[C@H]5O)nc3)cc12 [Compound 502, (2S,4R)-1-(2-(3-Acetyl-5-(2-((3R,3aR,6R,6aR)-6-hydroxyhexahydrofuro[3,2-b]furan-3-yloxy)pyrimidin-5-yl)-1H-indol-1-yl)acetyl)-N-(6-bromopyridin-2-yl)-4-fluoropyrrolidine-2-carboxamide] | < 1
CC(=O)c1cn(CC(=O)N(C)[C@H](C(=O)Nc2cccc(-c3ccccc3Cl)c2F)[C@@H](C)O)c2ccc(-c3cnc(C)nc3)cc12 [Compound 506, (2S,3R)-2-(2-(3-Acetyl-5-(2-methylpyrimidin-5-yl)-1H-indol-1-yl)-N-methylacetamido)-N-(2′-chloro-2-fluorobiphenyl-3-yl)-3-hydroxybutanamide] | 1 to 10
CC(=O)c1nn(CC(=O)N2C[C@H](F)C[C@H]2C(=O)Nc2cccc(-c3cc(S(=O)(=O)NC4CC4)ccc3Cl)c2F)c2ccc(-c3cnc(C)nc3)cc12 [Compound 521, (2S,4R)-1-(2-(3-acetyl-5-(2-methylpyrimidin-5-yl)-1H-indazol-1-yl)acetyl)-N-(2′-chloro-5′-(N-cyclopropyl-sulfamoyl)-2-fluorobiphenyl-3-yl)-4-fluoropyrrolidine-2-carboxamide] | < 1

Same assay, conditions: Table 4; Factor D inhibition, substrate Z-L-Lys-SBzl

SMILES | IC50 [µM]
CC(=O)c1nn(CC(=O)N2CC=CC[C@H]2C(=O)Nc2cccc(Br)n2)c2ccc(-c3cnc(C)nc3)cc12 [Compound 573, (S)-1-(2-(3-Acetyl-5-(2-methylpyrimidin-5-yl)-1H-indazol-1-yl)acetyl)-N-(6-bromopyridin-2-yl)-1,2,3,6-tetrahydropyridine-2-carboxamide] | < 1
CC(=O)c1nn(CC(=O)N2C[C@H](F)C[C@H]2c2nnc(CCCC(F)(F)F)[nH]2)c2ccc(-c3cnc(C)nc3)cc12 [Compound 584, 2-(3-Acetyl-5-(2-methylpyrimidin-5-yl)-1H-indazol-1-yl)-1-((2S,4R)-4-fluoro-2-(5-(4,4,4-trifluorobutyl)-4H-1,2,4-triazol-3-yl)pyrrolidin-1-yl)ethan-1-one] | 1 to 10
Cc1cccc(C[C@H](O)[C@@H]2C[C@@H](F)CN2C(=O)Cn2cc(C(N)=O)c3cc(-c4cnc(C)nc4)ccc32)n1 [Compound 559, 1-(2-((2S,4R)-4-Fluoro-2-((S)-1-hydroxy-2-(6-methylpyridin-2-yl)ethyl)pyrrolidin-1-yl)-2-oxoethyl)-5-(2-methylpyrimidin-5-yl)-1H-indole-3-carboxamide] | > 10
CC[C@@H](C(=O)Nc1cccc(Br)n1)N(C)C(=O)Cn1nc(C(C)=O)c2cc(-c3cnc(C)nc3)ccc21 [Compound 598, (S)-2-(2-(3-Acetyl-5-(2-methylpyrimidin-5-yl)-1H-indazol-1-yl)-N-methylacetamido)-N-(6-bromopyridin-2-yl)butanamide] | 1 to 10
CC(=O)c1nn(CC(=O)N2C[C@H](F)C[C@H]2C(=O)Nc2cccc(-c3ccc4scnc4c3)c2F)c2ccc(-c3cnc(C)nc3)cc12 [Compound 638, (2S,4R)-1-(2-(3-acetyl-5-(2-methylpyrimidin-5-yl)-1H-indazol-1-yl)acetyl)-N-(3-(benzo[d]thiazol-5-yl)-2-fluorophenyl)-4-fluoropyrrolidine-2-carboxamide] | < 1
Cc1ncc(-c2ccc3c(c2)c(C(=O)CP(=O)(O)O)nn3CC(=O)N2C[C@H](F)C[C@H]2C(=O)Nc2cccc(Br)n2)cn1 [Compound 626, (2-(1-(2-((2S,4R)-2-((6-bromopyridin-2-yl)carbamoyl)-4-fluoropyrrolidin-1-yl)-2-oxoethyl)-5-(2-methylpyrimidin-5-yl)-1H-indazol-3-yl)-2-oxoethyl)phosphonic acid] | > 10
CC(=O)c1nn(CC(=O)N2C[C@H](F)C[C@H]2CS(=O)(=O)c2cccc(Br)n2)c2ccc(-c3cnc(C)nc3)cc12 [Compound 603, 2-(3-Acetyl-5-(2-methylpyrimidin-5-yl)-1H-indazol-1-yl)-1-((2S,4R)-2-(((6-bromopyridin-2-yl)sulfonyl)methyl)-4-fluoropyrrolidin-1-yl)ethan-1-one] | > 10
COP(=O)(CC(=O)c1nn(CC(=O)N2C[C@H](F)C[C@H]2C(=O)Nc2cccc(Br)n2)c2ccc(-c3cnc(C)nc3)cc12)OC [Compound 625, dimethyl (2-(1-(2-((2S,4R)-2-((6-bromopyridin-2-yl)carbamoyl)-4-fluoropyrrolidin-1-yl)-2-oxoethyl)-5-(2-methylpyrimidin-5-yl)-1H-indazol-3-yl)-2-oxoethyl)phos-phonate] | > 10
CC(=O)c1nn(CC(=O)N2C[C@H]3C[C@H]3[C@H]2C(=O)Nc2ccn(CC(F)(F)F)n2)c2ccc(-c3cnc(C)nc3)cc12 [Compound 606, (1R,2S,5S)-3-(2-(3-acetyl-5-(2-methylpyrimidin-5-yl)-1H-indazol-1-yl)acetyl)-N-(1-(2,2,2-trifluoroethyl)-1H-pyrazol-3-yl)-3-azabicyclo[3.1.0]hex-ane-2-carboxamide] | < 1
CC(=O)c1nn(CC(=O)N2CCC[C@@H](C(=O)NCc3cccc(Br)n3)C2)c2ccc(-c3cnc(C)nc3)cc12 [Compound 642] | > 10
CC(=O)c1nn(CC(=O)N2C[C@H](F)C[C@H]2CC(N)=O)c2ccc(-c3cnc(C)nc3)cc12 [Compound 575, 2-((2R,4R)-1-(2-(3-Acetyl-5-(2-methylpyrimidin-5-yl)-1H-indazol-1-yl)acetyl)-4-fluoropyrrolidin-2-yl)acetamide] | > 10
CC(=O)c1nn(CC(=O)N2C[C@H](F)C[C@H]2C(=O)Nc2cccc(Br)n2)c2ccc(N3C[C@H]4CCCC[C@H]4C3)cc12 [Compound 621, (2S,4R)-1-(2-(3-acetyl-5-((3aR,7aS)-hexahydro-1H-isoindol-2(3H)-yl)-1H-indazol-1-yl)acetyl)-N-(6-bromopyridin-2-yl)-4-fluoropyrrolidine-2-carboxamide] | < 1
CC(=O)c1nn(CC(=O)N2C[C@H](F)C[C@H]2C(=O)NCC#N)c2ccc(-c3cnc(C)nc3)cc12 [Compound 601] | < 1
CC(=O)c1nn(CC(=O)N2C[C@H](F)C[C@H]2C(=O)Nc2cccc(-c3ccccc3Cl)c2F)c2ccc(N3CCn4c(nnc4C(F)(F)F)C3)cc12 [Compound 619, (2S,4R)-1-(2-(3-acetyl-5-(3-(trifluoromethyl)-5,6-dihydro-[1,2,4]triazolo[4,3-a]pyrazin-7(8H)-yl)-1H-indazol-1-yl)acetyl)-N-(2′-chloro-2-fluoro-[1,1′-biphenyl]-3-yl)-4-fluoropyrrolidine-2-carboxamide] | < 1
CC(=O)c1nn(CC(=O)N2C[C@H](F)C[C@H]2C(=O)OCc2ccc(Br)nc2N)c2ccc(-c3cnc(C)nc3)cc12 [Compound 570, (2S,4R)-(2-amino-6-bromopyridin-3-yl)methyl 1-(2-(3-acetyl-5-(2-methylpyrimidin-5-yl)-1H-indazol-1-yl)acetyl)-4-fluoropyrrolidine-2-carboxylate] | > 10
COc1ncc(-c2ccc3c(c2)c(C(C)=O)nn3CC(=O)N2C[C@H](F)C[C@H]2C(=O)Nc2nc(Br)ccc2C)cn1 [Compound 554, (2S,4R)-1-(2-(3-acetyl-5-(2-methoxypyrimidin-5-yl)-1H-indazol-1-yl)acetyl)-N-(6-bromo-3-methylpyridin-2-yl)-4-fluoropyrrolidine-2-carboxamide] | < 1
CC(=O)c1nn(CC(=O)N2CC=CC[C@H]2C(=O)Nc2cccc(C)n2)c2ccc(-c3cnc(C)nc3)cc12 [Compound 569, (S)-1-(2-(3-acetyl-5-(2-methylpyrimidin-5-yl)-1H-indazol-1-yl)acetyl)-N-(6-methylpyridin-2-yl)-1,2,3,6-tetrahydropyridine-2-carboxamide] | > 10
Cc1cccc(C[C@@H](O)[C@H]2C[C@@H](F)CN2C(=O)Cn2cc(C(N)=O)c3cc(-c4cnc(C)nc4)ccc32)n1 [Compound 561, 1-(2-((2R,4R)-4-Fluoro-2-((R)-1-hydroxy-2-(6-methylpyridin-2-yl)ethyl)pyrrolidin-1-yl)-2-oxoethyl)-5-(2-methylpyrimidin-5-yl)-1H-indole-3-carboxamide] | > 10
Cc1cccc(NC(=O)[C@@H]2CCC(F)CCN2C(=O)Cn2cc(C(N)=O)c3cc(-c4cccnc4)ccc32)n1 (stereo partly drawn) [Compound 588, 1-(2-((2S)-5-Fluoro-2-((6-methylpyridin-2-yl)carbamoyl)azepan-1-yl)-2-oxoethyl)-5-(pyridin-3-yl)-1H-indole-3-carboxamide] | > 10
Cc1ncc(-c2ccc3c(c2)c(C(C)O)nn3CC(=O)N2C[C@H](F)C[C@H]2C(=O)O)cn1 (stereo partly drawn) [Compound 631, (2S,4R)-4-Fluoro-1-(2-(3-(1-hydroxyethyl)-5-(2-methylpyrimidin-5-yl)-11-indazol-1-yl)acetyl)pyrrolidine-2-carboxylic Acid] | > 10
CC(=O)c1nn(CC(=O)N2C[C@H](F)C[C@H]2CC(=O)Nc2cccc(Br)n2)c2ccc(-c3cnc(C)nc3)cc12 [Compound 580, 2-((2R,4R)-1-(2-(3-Acetyl-5-(2-methylpyrimidin-5-yl)-1H-indazol-1-yl)acetyl)-4-fluoropyrrolidin-2-yl)-N-(6-bromopyridin-2-yl)acetamide] | > 10

Source: patent US11407738B2 (Achillion Pharmaceuticals, Inc., priority 2015, dated 2022)
